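Growth conditions: 96-well plates. Treatment: test compound, 48 hours, 5 concentrations. Analysis: linear interpolation between bracketing concentrations; unreached endpoints set to highest concentration. Here, GI50 denotes the concentration required for 50% inhibition of growth. TGI marks complete inhibition of growth.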
Assays:
Assay in all cases: growth of human tumour cells (NCI), 48 h
HCT-116 colon = tested on: HCT-116 colon
HL-60(TB) leukemia = tested on: HL-60(TB) leukemia
LOX IMVI melanoma = tested on: LOX IMVI melanoma
KM12 colon = tested on: KM12 colon
UO-31 renal = tested on: UO-31 renal
SNB-19 CNS = tested on: SNB-19 CNS
HCC-2998 colon = tested on: HCC-2998 colon
HS 578T breast = tested on: HS 578T breast
786-0 renal = tested on: 786-0 renal
RXF 393 renal = tested on: RXF 393 renal
OVCAR-3 ovarian = tested on: OVCAR-3 ovarian
SK-OV-3 ovarian = tested on: SK-OV-3 ovarian
RPMI-8226 leukemia = tested on: RPMI-8226 leukemia
ACHN renal = tested on: ACHN renal
SN12C renal = tested on: SN12C renal
COLO 205 colon = tested on: COLO 205 colon
OVCAR-5 ovarian = tested on: OVCAR-5 ovarian
SR leukemia = tested on: SR leukemia
HCT-15 colon = tested on: HCT-15 colon
A549 NSCLC = tested on: A549 NSCLC
NCI-H226 lung = tested on: NCI-H226 lung
IGROV1 ovarian = tested on: IGROV1 ovarian
UACC-62 melanoma = tested on: UACC-62 melanoma
PC-3 prostate = tested on: PC-3 prostate
HT29 colon = tested on: HT29 colon
OVCAR-4 ovarian = tested on: OVCAR-4 ovarian
MALME-3M melanoma = tested on: MALME-3M melanoma
T-47D breast = tested on: T-47D breast
NCI-H522 lung = tested on: NCI-H522 lung
MDA-MB-231 breast = tested on: MDA-MB-231 breast
DU-145 prostate = tested on: DU-145 prostate
OVCAR-8 ovarian = tested on: OVCAR-8 ovarian
SF-268 CNS = tested on: SF-268 CNS
MOLT-4 leukemia = tested on: MOLT-4 leukemia
SK-MEL-5 melanoma = tested on: SK-MEL-5 melanoma
UACC-257 melanoma = tested on: UACC-257 melanoma
K-562 leukemia = tested on: K-562 leukemia
MCF7 breast = tested on: MCF7 breast
NCI/ADR-RES ovarian = tested on: NCI/ADR-RES ovarian
SK-MEL-2 melanoma = tested on: SK-MEL-2 melanoma
SK-MEL-28 melanoma = tested on: SK-MEL-28 melanoma
NCI-H23 lung = tested on: NCI-H23 lung
SF-295 CNS = tested on: SF-295 CNS
EKVX NSCLC = tested on: EKVX NSCLC
NCI-H460 lung = tested on: NCI-H460 lung
SNB-75 CNS = tested on: SNB-75 CNS
U251 CNS = tested on: U251 CNS
SW-620 colon = tested on: SW-620 colon
CAKI-1 renal = tested on: CAKI-1 renal
BT-549 breast = tested on: BT-549 breast
HOP-62 NSCLC = tested on: HOP-62 NSCLC
HOP-92 NSCLC = tested on: HOP-92 NSCLC
MDA-MB-435 = tested on: MDA-MB-435
CCRF-CEM leukemia = tested on: CCRF-CEM leukemia
TK-10 renal = tested on: TK-10 renal
SF-539 CNS = tested on: SF-539 CNS
A498 renal = tested on: A498 renal

## O=c1cc(NCC(O)CN2CCOCC2)n(Cc2ccccc2)c(=O)n1Cc1ccccc1 (centres undefined)
HCT-116 colon
  GI50: 34.8 µM
  TGI: > 100 µM
HL-60(TB) leukemia
  GI50: 12.6 µM
  TGI: > 100 µM
LOX IMVI melanoma
  GI50: 37.8 µM
  TGI: > 100 µM
KM12 colon
  GI50: 36.1 µM
  TGI: > 100 µM
UO-31 renal
  GI50: 27.3 µM
  TGI: 85.8 µM
SNB-19 CNS
  GI50: > 100 µM
  TGI: > 100 µM
HCC-2998 colon
  GI50: 34.9 µM
  TGI: > 100 µM
HS 578T breast
  GI50: 37.8 µM
  TGI: > 100 µM
786-0 renal
  GI50: 41.4 µM
  TGI: > 100 µM
RXF 393 renal
  GI50: 30.5 µM
  TGI: 92.5 µM
OVCAR-3 ovarian
  GI50: 56.2 µM
  TGI: > 100 µM
SK-OV-3 ovarian
  GI50: > 100 µM
  TGI: > 100 µM
RPMI-8226 leukemia
  GI50: 28.3 µM
  TGI: 78 µM
ACHN renal
  GI50: 49.8 µM
  TGI: > 100 µM
SN12C renal
  GI50: 42.3 µM
  TGI: > 100 µM
COLO 205 colon
  GI50: 23.5 µM
  TGI: 58.6 µM
OVCAR-5 ovarian
  GI50: > 100 µM
  TGI: > 100 µM
SR leukemia
  GI50: 19.8 µM
  TGI: 49.3 µM
HCT-15 colon
  GI50: 45.5 µM
  TGI: > 100 µM
A549 NSCLC
  GI50: 53.5 µM
  TGI: > 100 µM
NCI-H226 lung
  GI50: 56.8 µM
  TGI: > 100 µM
IGROV1 ovarian
  GI50: 33.5 µM
  TGI: 86.3 µM
UACC-62 melanoma
  GI50: 22.7 µM
  TGI: 63.3 µM
PC-3 prostate
  GI50: 33.7 µM
  TGI: > 100 µM
HT29 colon
  GI50: 18.8 µM
  TGI: 41.6 µM
OVCAR-4 ovarian
  GI50: 39.9 µM
  TGI: > 100 µM
MALME-3M melanoma
  GI50: 26.9 µM
  TGI: 77.3 µM
T-47D breast
  GI50: 61 µM
  TGI: > 100 µM
NCI-H522 lung
  GI50: 28.1 µM
  TGI: 72 µM
MDA-MB-231 breast
  GI50: 19.2 µM
  TGI: 53.6 µM
DU-145 prostate
  GI50: 51.7 µM
  TGI: > 100 µM
OVCAR-8 ovarian
  GI50: 72.8 µM
  TGI: > 100 µM
SF-268 CNS
  GI50: 63.6 µM
  TGI: > 100 µM
MOLT-4 leukemia
  GI50: 27.8 µM
  TGI: > 100 µM
SK-MEL-5 melanoma
  GI50: 19.2 µM
  TGI: 35 µM
UACC-257 melanoma
  GI50: 30.2 µM
  TGI: 85.8 µM
K-562 leukemia
  GI50: 30.8 µM
  TGI: > 100 µM
MCF7 breast
  GI50: 41.8 µM
  TGI: > 100 µM
NCI/ADR-RES ovarian
  GI50: 65.7 µM
  TGI: > 100 µM
SK-MEL-2 melanoma
  GI50: > 100 µM
  TGI: > 100 µM
SK-MEL-28 melanoma
  GI50: 28.7 µM
  TGI: 70.3 µM
NCI-H23 lung
  GI50: 42.5 µM
  TGI: > 100 µM
SF-295 CNS
  GI50: 41.2 µM
  TGI: > 100 µM
EKVX NSCLC
  GI50: 70.6 µM
  TGI: > 100 µM
NCI-H460 lung
  GI50: 44.2 µM
  TGI: > 100 µM
SNB-75 CNS
  GI50: 31.8 µM
  TGI: 91.3 µM
U251 CNS
  GI50: 47.6 µM
  TGI: > 100 µM
SW-620 colon
  GI50: 62.5 µM
  TGI: > 100 µM
CAKI-1 renal
  GI50: 85.9 µM
  TGI: > 100 µM
BT-549 breast
  GI50: 45.9 µM
  TGI: > 100 µM
HOP-62 NSCLC
  GI50: 34.2 µM
  TGI: > 100 µM
HOP-92 NSCLC
  GI50: 21.7 µM
  TGI: 77.1 µM
MDA-MB-435
  GI50: 59.7 µM
  TGI: > 100 µM
CCRF-CEM leukemia
  GI50: 36.9 µM
  TGI: > 100 µM
TK-10 renal
  GI50: > 100 µM
  TGI: > 100 µM
SF-539 CNS
  GI50: 60.2 µM
  TGI: > 100 µM
A498 renal
  GI50: 49.3 µM
  TGI: > 100 µM
